Test results as given in patent publication US20220207902A1, “SYSTEM AND METHOD FOR AUTOMATICALLY DISCOVERING, CHARACTERIZING, CLASSIFYING AND SEMI-AUTOMATICALLY LABELING ANIMAL BEHAVIOR AND QUANTITATIVE PHENOTYPING OF BEHAVIORS IN ANIMALS” (President and Fellows of Harvard College, priority 2012, published 2022).
Entries after “also recorded” stand apart in the source; their conditions may differ.

Key:
mice [1] = test: odor quadrant arena, odors delivered in gas phase to one of four corners, animal tracked by 2D tracking or depth camera; assay type: in vivo
Text: (§1) FIGS. 4A-4E depict assessment of odor-driven innate behaviors in two and three dimensions. FIGS. 4A and B depict a conventional two-compartment behavioral choice assay. FIG. 4C, left, depicts a new behavioral arena. FIG. 4C, right, depicts a chart generated through use of custom-written Matlab code to track animal trajectories.
(§2) FIGS. 4A-4E depict the assessment of odor-driven innate behaviors in two and three dimensions. […] Odors are soaked into filter papers, which are placed in the small compartment of a cage divided by a parafilm curtain. This assay suffers from incomplete control of gas-phase odorant concentration, poorly defined spatial odor gradients and experimental variability due to the physical interaction of the animal with the odor source. The present inventors have therefore developed a new behavioral arena (FIG. 4C, left), in which odors are delivered to each of 4 corners in gas phase via high-performance computer-controlled Teflon valves.
Odors are delivered to one of four quadrants via computer-controlled olfactometers, which can deliver precisely timed pulses or square waves of odorants at defined concentrations. […]

mice [2] = test: conventional two-compartment behavioral choice assay (odor-soaked filter paper); assay type: in vivo; conditions: odors soaked into filter papers placed in the small compartment of a cage divided by a parafilm curtain; FIGS. 4A and 4B
Text: as §1, §2

Compound | posture (aspect ratio versus height) by depth camera (mice [1]; depth camera, compared with control conditions (stretched and low to the ground), FIG. 4E) | qualitative and quantitative avoidance behavior (mice [1]; odor delivered in gas phase in the upper right corner, FIG. 4D) | innate behavioral response to odor (attraction or avoidance) (mice [2])
CC1=NC(C)SC1C (stereo not shown) [TMT] | become compressed (from the perspective of the overhead camera) and elevate their noses | avoidance behaviors that are extraordinarily robust and well controlled; also recorded: avoidance behavior | avoidance
Cc1cnc(C)cn1 [2,5-DMP] | – | – | avoidance
CCCC(=O)O [butyric acid] | – | – | avoidance
CCCCCC(C)=O [2-heptanone] | – | – | avoidance
C=CCc1ccc(O)c(OC)c1 [eugenol] | – | – | robust innate behavioral attraction
